Here are results for 1 compound from patent publication US20150087722A1, “TREATMENT FOR BREAST TUMOR CELL METASTASIS” (China Medical University, priority 2012, published 2015).

Molecules are shown by their SMILES.

For assay [1], the system named is ERK1/2, p38 and JNK1/2 in breast tumor cells. Nature of the assay: western blotting of MAPK proteins and phosphorylation. The format is cell-based, human. The note with it: 2 μM, 0-120 min. The protocol: The steps of western blotting include: washing cells with PBS twice at 4° C.; adding a lysis buffer and rubbing the cells by a rubbr policeman so as to lyse cells; putting the lysed cell solution into a 1.5 ml microcentrifuge tube and shaking for 1 min; centrifuging at 12000 rpm for 10 min and taking the supernatant; measuring concentration of the protein through a Bio-Rad protein assay kit; and storing the remained extracted protein solution at −70° C.; taking 100 μg protein solution and adding a SDS/protein loading buffer having the same volume, where the SDS/protein loading buffer has a concentration two times larger than the protein solution; boiling the mixture of the protein solution and the SDS/protein loading buffer at 100° C. for 10 min; cooling and loading the protein samples in each hole of gel; adjusting the voltage to 100 V and running the protein samples on the gel until the tracking dye in the sample buffer reaches the bottom of the gel; and subsequently transferring the protein from the gel using electrophoresis. […] Then luminescence image equipment was used, where the PVDF was placed onto a black metal plate by a plastic pincer and the face including protein was upwards, a 1:1 mixed Chemiluminesent Substrate was added into the membrane and the exposure time depends on the fluorescence intensity of antibodies. […]
(In general: A western blot detects proteins with antibodies after separation by electrophoresis.)

The subject of assay [2] is E-cadherin and Vimentin in cells of tumor inoculated nude mice. Description: immunochemistry staining of E-cadherin and Vimentin in tumors of nude mice. The class given is in vivo. The note with it: 0.75 mg/Kg everyday. As for the experimental part:
ICC includes embedding the tumor cells in paraffin and slicing the embedded cells into slides having a thickness of […] by a slicer, deparaffinizing, rehydrating and renaturating, picking the slide out and putting the slide into the primary antibody E-cadherin; reacting for 1.5 h and washing the slide for three times with PBS, reacting with the secondary antibody for 30 min and washing the slide for three times with PBS, staining the slide with 3′,3′-diaminobenzendine (DAB) at a ratio of 1:30, and the slide was mounted with Entellanz. The expression amount of signaling-related proteins in the cells of tumor inoculated nude mice was detected by an immunochemistry staining method. In this test the expression of E-cadherin and Vimentin was particularly detected. Immunochemistry staining method and the quantitative method thereof were described as in the test example 2-2, and it is not illustrated any further. FIG. 29 illustrates photomicrographs of expression results of signaling-related proteins in the cells of tumor inoculated nude mice after the cells were stained through the immunochemistry staining method. FIGS. 30 and 31 were respective quantitative results of primary antibody reaction.

For the compound `COC1=C(OC)C(=O)C(C)=C(C)C1=O` [compound II], in assay [1], the “phosphorylation of ERK1/2, p38 and JNK1/2” value was “probably inhibited”; the “protein expression of ERK1/2, p38 and JNK1/2” value is reported as “not affected”. Further, in assay [2], the “expression amount of proteins used for facilitating tumor proliferation in tumor tissues” value was “low” and the “expression amount of proteins used for inhibiting tumor proliferation in tumor tissues” value is given as “high”.
